PubChem BioAssay AID192 (DTP/NCI, 2004)
Values joined by “and” are separate entries in the source; they are usually repeats but may differ in a detail not shown here. Equal entries are not always repeated. Toxic doses and inconclusive results are not listed.

Test system: BDF1 mice, B16 melanoma ip, median survival T/C
Test: NCI In Vivo Anticancer Drug Screen. Data for tumor model B16 Melanoma (intraperitoneal) in B6D2F1 (BDF1) mice
Conditions: endpoint: median survival time, higher = longer survival
How it was run: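 Each result divides a survival or tumor-size measurement in the compound-treated group by the same measurement in the vehicle group.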

[1] = dose: 100.0 mg/kg/injection, schedule: Q04DX003 (ip), vehicle: Klucel (hydroxypropylcellulose) (HPC)
[2] = dose: 200.0 mg/kg/injection, schedule: Q04DX003 (ip), vehicle: Klucel (hydroxypropylcellulose) (HPC)
[3] = dose: 50.0 mg/kg/injection, schedule: Q01DX009 (ip), vehicle: saline with Tween-80
[4] = dose: 100.0 mg/kg/injection, schedule: Q01DX009 (ip), vehicle: Klucel (hydroxypropylcellulose) (HPC)
[5] = dose: 100.0 mg/kg/injection, schedule: Q01DX009 (ip), vehicle: saline with Tween-80
[6] = dose: 200.0 mg/kg/injection, schedule: Q01DX009 (ip), vehicle: saline with Tween-80
[7] = dose: 400.0 mg/kg/injection, schedule: Q01DX009 (ip), vehicle: Klucel (hydroxypropylcellulose) (HPC)
[8] = dose: 200.0 mg/kg/injection, schedule: Q01DX009 (ip), vehicle: Klucel (hydroxypropylcellulose) (HPC)
[9] = dose: 25.0 mg/kg/injection, schedule: Q01DX009 (ip), vehicle: saline with Tween-80
[10] = dose: 100.0 mg/kg/injection, schedule: Q04DX003 (ip), vehicle: saline with Tween-80
[11] = dose: 50.0 mg/kg/injection, schedule: Q04DX003 (ip), vehicle: saline with Tween-80

In the case of `CCC(=O)Oc1ccc(OCc2ccccc2)cc1`, the T/C [1] is reported as 95 % of control, the T/C [2] is reported as 86 % of control and the T/C (dose: 400.0 mg/kg/injection, schedule: Q04DX003 (ip), vehicle: Klucel (hydroxypropylcellulose) (HPC)) is reported as 97 % of control.

In the case of `O=CN(c1ccccc1)c1ccccc1`, the T/C (dose: 50.0 mg/kg/injection, schedule: Q01DX009 (ip), vehicle: other) is reported as 100 % of control, the T/C (dose: 100.0 mg/kg/injection, schedule: Q01DX009 (ip), vehicle: other) is reported as 100 % of control and the T/C (dose: 200.0 mg/kg/injection, schedule: Q01DX009 (ip), vehicle: other) is reported as 105 % of control. For the same compound, the T/C (dose: 400.0 mg/kg/injection, schedule: Q01DX009 (ip), vehicle: other) was 97 % of control.

`O=C(/C(=C/c1ccccc1)CBr)c1ccccc1` was tested, and the T/C (dose: 0.13 mg/kg/injection, schedule: Q01DX009 (ip), vehicle: saline with Tween-80) was 89 % of control, the T/C (dose: 0.25 mg/kg/injection, schedule: Q01DX009 (ip), vehicle: saline with Tween-80) was 100 % of control and the T/C (dose: 0.5 mg/kg/injection, schedule: Q01DX009 (ip), vehicle: saline with Tween-80) was 86 % of control and 100 % of control. For the same compound, the T/C (dose: 1.0 mg/kg/injection, schedule: Q01DX009 (ip), vehicle: saline with Tween-80) was 89 % of control and 92 % of control, the T/C (dose: 2.0 mg/kg/injection, schedule: Q01DX009 (ip), vehicle: saline with Tween-80) was 89 % of control and the T/C (dose: 4.0 mg/kg/injection, schedule: Q01DX009 (ip), vehicle: saline with Tween-80) was 89 % of control.

With `Cc1cc(O)c2c(c1O)C(=O)C13C(=C2O)C(=O)C2C(O)C1C1C(O)C3C(=O)C3=C(O)c4c(O)cc(C)c(O)c4C(=O)C321` (stereo not given) the T/C (dose: 0.19 mg/kg/injection, schedule: Q01DX009 (ip), vehicle: saline with Tween-80) was 105 % of control, the T/C (dose: 0.39 mg/kg/injection, schedule: Q01DX009 (ip), vehicle: saline with Tween-80) was 114 % of control and the T/C (dose: 0.78 mg/kg/injection, schedule: Q01DX009 (ip), vehicle: saline with Tween-80) was 121 % of control.

With `Cc1cccc(NS(=O)(=O)c2ccccc2)c1C` the T/C [3] was 98 % of control, the T/C [4] was 96 % of control and the T/C [5] was 98 % of control. For the same compound, the T/C [6] was 97 % of control and the T/C [7] was 88 % of control.

For `NC(N)=Nc1ccc(C(=O)Nc2ccc([N+](=O)[O-])cc2)cc1`, the T/C (dose: 50.0 mg/kg/injection, schedule: Q01DX009 (ip), vehicle: Klucel (hydroxypropylcellulose) (HPC)) was 98 % of control, the T/C [4] was 98 % of control and the T/C [8] was 94 % of control.

In the case of `COc1c(Cl)c2c(c(OC)c1OC)-c1ccc(OC)c(=O)cc1C(NC(C)=O)CC2` (stereo not given), the T/C (dose: 0.38 mg/kg/injection, schedule: Q01DX009 (ip), vehicle: Klucel (hydroxypropylcellulose) (HPC)) is reported as 118 % of control, the T/C (dose: 0.75 mg/kg/injection, schedule: Q01DX009 (ip), vehicle: Klucel (hydroxypropylcellulose) (HPC)) is reported as 123 % of control and the T/C (dose: 3.0 mg/kg/injection, schedule: Q01DX009 (ip), vehicle: Klucel (hydroxypropylcellulose) (HPC)) is reported as 109 % of control.

In the case of `Cn1c(C(Cl)Cl)nc2ccccc2c1=O`, the T/C (dose: 12.5 mg/kg/injection, schedule: Q01DX009 (ip), vehicle: saline with Tween-80) is reported as 110 % of control, the T/C [9] is reported as 105 % of control and the T/C [3] is reported as 105 % of control.

With `CC(=O)CC(=O)Nc1cc(Cl)c(NC(=O)CC(C)=O)cc1Cl` the T/C [10] was 88 % of control and the T/C (dose: 200.0 mg/kg/injection, schedule: Q04DX003 (ip), vehicle: saline with Tween-80) was 98 % of control.

In the case of `COc1cc([C@@H]2c3cc4c(cc3[C@@H](OC3OC5COC(C)OC5C(O)C3O)[C@H]3COC(=O)[C@H]23)OCO4)cc(OC)c1O` (stereo not given in full), the T/C (dose: 1.73 mg/kg/injection, schedule: Q01DX009 (ip), vehicle: clinical formulation) is reported as 206 % of control, the T/C (dose: 2.0 mg/kg/injection, schedule: Q01DX009 (ip), vehicle: Klucel (hydroxypropylcellulose) (HPC)) is reported as 150 % of control and the T/C (dose: 2.88 mg/kg/injection, schedule: Q01DX009 (ip), vehicle: clinical formulation) is reported as 240 % of control. For the same compound, the T/C (dose: 4.0 mg/kg/injection, schedule: Q01DX009 (ip), vehicle: Klucel (hydroxypropylcellulose) (HPC)) was 111 % of control, the T/C (dose: 4.8 mg/kg/injection, schedule: Q01DX009 (ip), vehicle: clinical formulation) was 240 % of control and the T/C (dose: 5.0 mg/kg/injection, schedule: Q01DX009 (ip), vehicle: saline) was 252 % of control. The T/C (dose: 5.0 mg/kg/injection, schedule: Q04DX003 (ip), vehicle: suspension in saline) was 202 % of control, the T/C (dose: 8.0 mg/kg/injection, schedule: Q01DX009 (ip), vehicle: Klucel (hydroxypropylcellulose) (HPC)) was 276 % of control and the T/C (dose: 8.0 mg/kg/injection, schedule: Q01DX009 (ip), vehicle: clinical formulation) was 259 % of control. For the same compound, the T/C (dose: 8.0 mg/kg/injection, schedule: Q04DX003 (ip), vehicle: suspension in saline) was 180 % of control, the T/C (dose: 10.0 mg/kg/injection, schedule: Q01DX009 (ip), vehicle: saline) was 285 % of control and the T/C (dose: 10.0 mg/kg/injection, schedule: Q04DX003 (ip), vehicle: suspension in saline) was 208 % of control. For the same compound, the T/C (dose: 13.3 mg/kg/injection, schedule: Q01DX009 (ip), vehicle: clinical formulation) was 53 % of control, the T/C (dose: 16.0 mg/kg/injection, schedule: Q04DX003 (ip), vehicle: suspension in saline) was 207 % of control and the T/C (dose: 20.0 mg/kg/injection, schedule: Q04DX003 (ip), vehicle: suspension in saline) was 236 % of control. For the same compound, the T/C (dose: 32.0 mg/kg/injection, schedule: Q04DX003 (ip), vehicle: suspension in saline) was 85 % of control, the T/C (dose: 40.0 mg/kg/injection, schedule: Q04DX003 (ip), vehicle: suspension in saline) was 241 % of control and the T/C (dose: 64.0 mg/kg/injection, schedule: Q04DX003 (ip), vehicle: suspension in saline) was 63 % of control.

`CCC/C(=C\C(=O)O)CC` was tested, and the T/C [4] was 108 % of control, the T/C [1] was 95 % of control and the T/C [8] was 100 % of control. For the same compound, the T/C [2] was 95 % of control and the T/C [7] was 97 % of control.

In the case of `c1ccc2c(CC[n+]3cccc(C4OCCO4)c3)c[nH]c2c1`, the T/C (dose: 12.5 mg/kg/injection, schedule: Q01DX009 (ip), vehicle: saline) is reported as 94 % of control, the T/C (dose: 25.0 mg/kg/injection, schedule: Q01DX009 (ip), vehicle: saline) is reported as 100 % of control and the T/C (dose: 50.0 mg/kg/injection, schedule: Q01DX009 (ip), vehicle: saline) is reported as 100 % of control.

In the case of `COC(=O)c1cc(I)ccc1O`, the T/C [5] is reported as 102 % of control, the T/C [6] is reported as 104 % of control and the T/C (dose: 400.0 mg/kg/injection, schedule: Q01DX009 (ip), vehicle: saline with Tween-80) is reported as 102 % of control.

`COC(=O)c1nc(-c2ccc3c(n2)C(=O)C(N)=C(OC)C3=O)c(N)c(-c2ccc(OC)c(OC)c2O)c1C` was tested, and the T/C (dose: 0.1 mg/kg/injection, schedule: Q01DX009 (ip), vehicle: saline with Tween-80) was 95 % of control, the T/C (dose: 0.2 mg/kg/injection, schedule: Q01DX009 (ip), vehicle: saline with Tween-80) was 97 % of control and the T/C (dose: 0.4 mg/kg/injection, schedule: Q01DX009 (ip), vehicle: saline with Tween-80) was 105 % of control. The T/C (dose: 0.8 mg/kg/injection, schedule: Q01DX009 (ip), vehicle: saline with Tween-80) was 104 % of control.

In the case of `Cc1cc(O)c(C)c(C)c1Cl`, the T/C [9] is reported as 100 % of control, the T/C [3] is reported as 97 % of control and the T/C [11] is reported as 92 % of control. The T/C [5] was 97 % of control and the T/C [10] was 95 % of control.

In the case of `N#CC1CS(=O)(=O)C1`, the T/C (dose: 25.0 mg/kg/injection, schedule: Q04DX003 (ip), vehicle: saline with Tween-80) is reported as 104 % of control, the T/C [11] is reported as 98 % of control and the T/C [10] is reported as 99 % of control and 113 % of control.

For `COc1cccc2c1C(=O)c1c(O)c3c(c(O)c1C2=O)C[C@@](O)(C(=O)CO)C[C@@H]3OC1CC(NCc2ccccc2)C(O)C(C)O1` (stereo not given in full), the T/C (dose: 15.0 mg/kg/injection, schedule: Q01DX001 (ip), vehicle: water) was 156 % of control and 171 % of control and the T/C (dose: 30.0 mg/kg/injection, schedule: Q01DX001 (ip), vehicle: water) was 171 % of control and 175 % of control.
